The text below walks through data of BindingDB's records for doi:10.1016/j.bmcl.2004.06.018 (Darmstadt Technical University, 2004).

This experiment addresses Proto-oncogene tyrosine-protein kinase Src (Homo sapiens, UniProt P12931). As to the kind of experiment: Inhibition of fluorescent (GpYEEI) binding to Src protein tyrosine kinase SH2 domain.

Structures are written as SMILES.

Proto-oncogene tyrosine-protein kinase Src, sequence (P12931 2-536 limits assumed): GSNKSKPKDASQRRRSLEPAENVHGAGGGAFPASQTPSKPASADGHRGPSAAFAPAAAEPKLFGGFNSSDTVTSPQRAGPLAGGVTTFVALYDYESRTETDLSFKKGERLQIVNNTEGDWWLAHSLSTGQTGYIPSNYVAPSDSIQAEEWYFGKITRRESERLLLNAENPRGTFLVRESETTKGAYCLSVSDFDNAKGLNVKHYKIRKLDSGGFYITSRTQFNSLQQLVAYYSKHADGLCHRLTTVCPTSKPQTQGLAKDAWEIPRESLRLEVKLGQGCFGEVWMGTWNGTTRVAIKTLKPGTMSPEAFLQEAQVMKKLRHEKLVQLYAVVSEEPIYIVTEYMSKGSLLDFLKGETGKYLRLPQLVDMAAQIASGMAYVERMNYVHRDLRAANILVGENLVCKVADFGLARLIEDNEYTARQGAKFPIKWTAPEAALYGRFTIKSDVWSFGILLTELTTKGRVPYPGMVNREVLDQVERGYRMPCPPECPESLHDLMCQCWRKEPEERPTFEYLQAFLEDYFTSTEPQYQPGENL

One may read the IC50 as the concentration needed to halve the response being measured. A low value points to greater potency in that assay. As for `COc1cccc(CNC(=O)[C@@H](NC(=O)COc2cc3[n+]4c(c2)C(=O)[O][Cu]4([OH])[O]C3=O)c2ccccc2)c1` [Copper complex], the IC50 turned out to be 20 µM.
For `COc1cccc(CNC(=O)[C@H](Cc2ccccc2)NC(=O)COc2cc3[n+]4c(c2)C(=O)[O][Cu]4([OH])[O]C3=O)c1` [Copper complex], the IC50 turned out to be 17 µM.
